Measured values reported in article PMC7894860, “Molecular dynamics investigation of the interaction between Colletotrichum capsici cutinase and berberine suggested a mechanism for reduced enzyme activity” (PLoS ONE, 2021).

Legend:
[1] = target: T1, cutinase from Colletotrichum capsici (Colletotrichum truncatum, UniProt P10951); assay: turbidimetric hydrolysis assay (OD630); type: biochemical; details: 30°C; substrate emulsion in 25 mM potassium phosphate pH 8.0, 0.5% gum arabic
T1 construct: gene CUTA; purchased recombinant protein
T1 sequence (P10951 17-228): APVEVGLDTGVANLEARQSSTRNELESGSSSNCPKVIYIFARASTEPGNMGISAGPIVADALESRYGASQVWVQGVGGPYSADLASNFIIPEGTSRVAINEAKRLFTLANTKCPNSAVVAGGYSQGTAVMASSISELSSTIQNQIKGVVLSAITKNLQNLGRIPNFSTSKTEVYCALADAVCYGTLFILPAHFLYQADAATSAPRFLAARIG

[2] = target: T1, cutinase from Colletotrichum capsici; assay: turbidimetric ester hydrolysis assay (OD630); type: biochemical; details: read-out: relative activity at 500 μg/ml berberine

SMILES	turbidimetric hydrolysis assay (OD630) [1]	activity at 500 µg/mL [2] [%]
CCCCCCCC(=O)OCC(COC(=O)CCCCCCC)OC(=O)CCCCCCC [Glyceryl trioctanoate]	larger reduced enzyme activities for longer chain substrates glyceryl trioctanoate and isopropyl myristate	
CCCC(=O)OCC(COC(=O)CCC)OC(=O)CCC [Tributyrin]	For short chain substrate tributyrin, berberine conferred slight decrease of relative activity	
COc1ccc2cc3[n+](cc2c1OC)CCc1cc2c(cc1-3)OCO2 [berberine]		78
